What was measured:
Format in all cases: functional, cell-based
COLO 205 = experiment: Compound was evaluated for cytotoxicity against COLO 205 colon cancer cells ([…] cells); details: Homo sapiens
LNCaP [1] = experiment: Compound was evaluated for cytotoxicity against LNCaP prostate cancer cells; details: Homo sapiens
LNCaP [2] = experiment: Compound was evaluated for cytotoxicity against LNCaP prostate cancer cells (AR dependent cells); details: Homo sapiens
[3] = Compound was evaluated for cytotoxicity against LAPC4 prostate cancer cells (AR dependent cells); details: Homo sapiens
[4] = Compound was evaluated for cytotoxicity against MDA-468 breast cancer cells ([…] cells); details: Homo sapiens, MDA-MB-468
MCF7 = experiment: Compound was evaluated for cytotoxicity against MCF-7 breast cancer cells ([…] cells); details: Homo sapiens
PC-3 = experiment: Compound was evaluated for cytotoxicity against PC3 prostate cancer cells ([…] cells); details: Homo sapiens

Q: Which results are given for COC1=C2C[C@H](C)C[C@H](OC)[C@@H](O)[C@H](C)/C=C(\C)C[C@H](OC(N)=O)[C@@H](OC)/C=C\C=C(/C)C(=O)NC(=CC1=O)C2=O?
A: IC50 (COLO 205): 20 nM; IC50 (LNCaP [1]): 40 nM; IC50 (LNCaP [2]): 40 nM; IC50 [3]: 25 nM; IC50 [4]: 20 nM; IC50 (MCF7): 30 nM; IC50 (PC-3): 30 nM

Q: Which IC50 (LNCaP [1]) does the source give for CO[C@H]1/C=C\C=C(/C)C(=O)NC2=CC(=O)C(NCCCC/C=C\[C@]3(O)CC[C@@]4(C)C5CC=C6CC7(CC[C@]6(C)[C@@]5(C)CC[C@@]43C)OCCO7)=C(C[C@H](C)C[C@H](OC)[C@@H](O)[C@H](C)/C=C(\C)C[C@@H]1OC(N)=O)C2=O (stereo partly specified) here?
A: > 1000 nM

Q: What does the source list for CO[C@H]1/C=C\C=C(/C)C(=O)NC2=CC(=O)C(NCCCCC#C[C@]3(O)CC[C@@]4(C)C5CCC6=CC(=O)CC[C@]6(C)[C@@]5(C)CC[C@@]43C)=C(C[C@H](C)C[C@H](OC)[C@@H](O)[C@H](C)/C=C(\C)C[C@@H]1OC(N)=O)C2=O (stereo partly specified)?
A: IC50 (COLO 205): 200 nM; IC50 (LNCaP [1]): 100 nM; IC50 (LNCaP [2]): 100 nM; IC50 [3]: 40 nM; IC50 [4]: 240 nM; IC50 (MCF7): 300 nM; IC50 (PC-3): 300 nM

Q: For CO[C@H]1/C=C\C=C(/C)C(=O)NC2=CC(=O)C(NCCCCCCC#C[C@]3(O)CC[C@@]4(C)C5CCC6=CC(=O)CC[C@]6(C)[C@@]5(C)CC[C@@]43C)=C(C[C@H](C)C[C@H](OC)[C@@H](O)[C@H](C)/C=C(\C)C[C@@H]1OC(N)=O)C2=O (stereo partly specified), which IC50 (LNCaP [1]) is on record?
A: > 1000 nM

Q: With CO[C@H]1/C=C\C=C(/C)C(=O)NC2=CC(=O)C(NCCCC#C[C@]3(O)CC[C@@]4(C)C5CCC6=CC(=O)CC[C@]6(C)[C@@]5(C)CC[C@@]43C)=C(C[C@H](C)C[C@H](OC)[C@@H](O)[C@H](C)/C=C(\C)C[C@@H]1OC(N)=O)C2=O (stereo partly specified) as the compound, how does the IC50 (LNCaP [1]) read?
A: 200 nM

Q: With CO[C@H]1/C=C\C=C(/C)C(=O)NC2=CC(=O)C(NCCC#C[C@]3(O)CC[C@@]4(C)C5CCC6=CC(=O)CC[C@]6(C)[C@@]5(C)CC[C@@]43C)=C(C[C@H](C)C[C@H](OC)[C@@H](O)[C@H](C)/C=C(\C)C[C@@H]1OC(N)=O)C2=O (stereo partly specified) as the compound, how does the IC50 (LNCaP [1]) read?
A: > 1000 nM

Q: Which IC50 (LNCaP [1]) does the source give for CO[C@H]1/C=C\C=C(/C)C(=O)NC2=CC(=O)C(NCCCC/C=C/[C@]3(O)CC[C@@]4(C)C5CC=C6CC7(CC[C@]6(C)[C@@]5(C)CC[C@@]43C)OCCO7)=C(C[C@H](C)C[C@H](OC)[C@@H](O)[C@H](C)/C=C(\C)C[C@@H]1OC(N)=O)C2=O (stereo partly specified) here?
A: > 1000 nM

Q: With CO[C@H]1/C=C\C=C(/C)C(=O)NC2=CC(=O)C(NCCCCCC[C@]3(O)CC[C@@]4(C)C5CC=C6CC7(CC[C@]6(C)[C@@]5(C)CC[C@]34C)OCCO7)=C(C[C@H](C)C[C@H](OC)[C@@H](O)[C@H](C)/C=C(\C)C[C@@H]1OC(N)=O)C2=O (stereo partly specified) as the compound, how does the IC50 (LNCaP [1]) read?
A: > 1000 nM

Q: Which IC50 (LNCaP [1]) does the source give for CO[C@H]1/C=C\C=C(/C)C(=O)NC2=CC(=O)C(NCCCCCC#C[C@]3(O)CC[C@@]4(C)C5CCC6=CC(=O)CC[C@]6(C)[C@@]5(C)CC[C@@]43C)=C(C[C@H](C)C[C@H](OC)[C@@H](O)[C@H](C)/C=C(\C)C[C@@H]1OC(N)=O)C2=O (stereo partly specified) here?
A: > 1000 nM

Reference: ChEMBL document CHEMBL1133130, “Synthesis and evaluation of geldanamycin-testosterone hybrids” (Bioorg Med Chem Lett, 2000)
